{
  "source": "patent US4218439A",
  "about": "“Peptide which inhibits gonadal function” (The Salk Institute for Biological Studies, priority 1978, dated 1980)",
  "key": {"female rats": {"tested_on": "female rats", "settings": "large and frequent dosages; cited from earlier work"}, "[1]": {"tested_on": "release of gonadotropins by the pituitary gland", "test": "potency of the peptide compared with LRF", "settings": "times more potent than LRF", "from_the_text": "The peptide can be used as a contraceptive for male mammals. The peptide can be administered by any suitable and convenient method, such as orally, by injection or subcutaneously. The peptide can be combined with suitable pharmaceutically acceptable carriers or diluents, such as vegetable oil, sugars, polysaccharides and gums."}, "male rats [2]": {"tested_on": "male rats", "test": "treatment of male rats with the peptide once a day: organ weights, plasma hormones, histology, fertility", "format": "in vivo, rat", "from_the_text": "It has been determined that the treatment of male rats with 10 micrograms of the peptide once a day for 7 days results in a decrease in testis and seminal vesicle weight, spermatogenesis and plasma androgen levels. However, immunoreactive gonadotropin levels in the treated male animals were elevated relative to control animals."}, "male mammals": {"tested_on": "male mammals", "test": "effective dosage level and recovery after cessation of 7-day treatment", "format": "in vivo", "from_the_text": "The peptide is used at a level effective to prevent reproduction by male mammals. It has been determined that the peptide of the invention is effective at levels as low as 0.5 microgram per kilogram of body weight per day for 7 days to reduce testes and seminal vesicle weights. […] Prostate weights recover in 2 weeks and seminal vesicle weights in 4 weeks. It is preferred to use dosage levels in the range of from about 0.5 to about 50 micrograms per kilogram of body weight per day. Higher levels can be used but no significant benefit is attained through use of higher levels."}, "male rats [3]": {"tested_on": "male rats", "test": "treatment of male rats with the peptide once a day: organ weights, plasma hormones, histology, fertility", "format": "in vivo, rat", "settings": "10 μG peptide for 15 days (Table I)"}, "[4]": {"tested_on": "release of luteinizing hormone and other gonadotropins by the pituitary gland", "settings": "compared with Gly6 peptide; cited from earlier work"}, "[5]": {"settings": "following cessation of the injections"}, "[6]": {"settings": "male rats, 10 micrograms once a day for 7 days"}, "[7]": {"settings": "following cessation of treatment for 7 days"}},
  "data": [
    {"compound": "p--Glu--His--Trp--Ser--Tyr--Gly--Leu--Arg--Pro--Gly--NH2 (EHWSYGLRPG; pyroglutamyl N-terminus, C-terminal amide; printed: Glu--His--Trp--Ser--Tyr--Gly--Leu--Arg--Pro--Gly--) [LRF, hypothalamic hormone which acts as a releasing factor for LH; decapeptide]", "values": [
      {"measurement": "effect on gonadal function", "setting": "female rats", "result": "inhibit gonadal function"}
    ]},
    {"compound": "CCNC(=O)[C@@H]1CCCN1C(=O)[C@H](CCCNC(=N)N)NC(=O)[C@H](CC(C)C)NC(=O)[C@@H](Cc1c[nH]c2ccccc12)NC(=O)[C@H](Cc1ccc(O)cc1)NC(=O)[C@H](CO)NC(=O)[C@H](Cc1c[nH]c2ccccc12)NC(=O)[C@H](Cc1c[nH]cn1)NC(=O)[C@@H]1CCC(=O)N1", "note": "[peptide, p--Glu--His--Trp--Ser--Tyr--D--Trp--Leu--Arg--Pro--NH--CH2 --CH3]", "values": [
      {"measurement": "potency relative to LRF", "setting": "[1]", "result": "about 150 times"},
      {"measurement": "ability to cause fertilization", "setting": "male rats [2]; [5]", "result": "incapable of causing fertilization"},
      {"measurement": "ability to effect coitus", "setting": "male rats [2]; [5]", "result": "capable of effecting coitus"},
      {"measurement": "histological examination of the testes", "setting": "male rats [2]; following the 7-day treatment, up to several weeks following cessation of daily injections", "result": "tubular damage, arrested spermatogenesis and degenerated Sertoli cells"},
      {"measurement": "immunoreactive gonadotropin levels relative to control animals", "setting": "male rats [2]; [6]", "result": "elevated"},
      {"measurement": "testis and seminal vesicle weight, spermatogenesis and plasma androgen levels", "setting": "male rats [2]; [6]", "result": "decrease"},
      {"measurement": "time for prostate weights to recover", "setting": "male mammals; [7]", "result": 2, "unit": "weeks"},
      {"measurement": "time for seminal vesicle weights to recover", "setting": "male mammals; [7]", "result": 4, "unit": "weeks"},
      {"measurement": "time until testosterone levels comparable to those of control animals", "setting": "male mammals; [7]", "result": "one"},
      {"measurement": "level effective to reduce testes and seminal vesicle weights", "setting": "male mammals; for 7 days", "result": "≤ 0.5 microgram per kilogram of body weight per day"},
      {"measurement": "Plasma DHT", "setting": "male rats [3]", "result": 151, "unit": "ng/mL"},
      {"measurement": "Plasma FSH", "setting": "male rats [3]", "result": 1582, "unit": "ng/mL"},
      {"measurement": "Plasma LH", "setting": "male rats [3]", "result": 561, "unit": "ng/mL"},
      {"measurement": "Plasma Test.", "setting": "male rats [3]", "result": 229, "unit": "ng/mL"},
      {"measurement": "Wt. Sem. V.", "setting": "male rats [3]", "result": 0.18, "unit": "Grams"},
      {"measurement": "Wt. Testis", "setting": "male rats [3]", "result": 1.33, "unit": "Grams"}
    ]},
    {"compound": "p--Glu--Trp--Ser--Tyr--D--Ala--Leu--Arg--Pro--Gly--NH2", "values": [
      {"measurement": "potency as an inhibitor for the release of gonadotropins relative to the same peptide with Gly in the 6-position", "setting": "[4]", "result": 3, "unit": "times"}
    ]}
  ]
}
